According to BindingDB's records for patent WO2025049746 (Eikon Therapeutics, 2025):

How the values were obtained:
[1] = target: T1, Bifunctional 3'-5' exonuclease/ATP-dependent helicase WRN [480-1251] (UniProt Q14191); assay: Biochemical Activity Assays
T1 construct: 480-1251

[2] = target: Bifunctional 3'-5' exonuclease/ATP-dependent helicase WRN (Homo sapiens, UniProt Q14191); assay: ADP-Glo Kinase Assay
Protocol: ATPase activity was measured using the ADP-Glo Kinase Assay following the manufacturers recommended protocol.

T1 sequence (Q14191 480-1251): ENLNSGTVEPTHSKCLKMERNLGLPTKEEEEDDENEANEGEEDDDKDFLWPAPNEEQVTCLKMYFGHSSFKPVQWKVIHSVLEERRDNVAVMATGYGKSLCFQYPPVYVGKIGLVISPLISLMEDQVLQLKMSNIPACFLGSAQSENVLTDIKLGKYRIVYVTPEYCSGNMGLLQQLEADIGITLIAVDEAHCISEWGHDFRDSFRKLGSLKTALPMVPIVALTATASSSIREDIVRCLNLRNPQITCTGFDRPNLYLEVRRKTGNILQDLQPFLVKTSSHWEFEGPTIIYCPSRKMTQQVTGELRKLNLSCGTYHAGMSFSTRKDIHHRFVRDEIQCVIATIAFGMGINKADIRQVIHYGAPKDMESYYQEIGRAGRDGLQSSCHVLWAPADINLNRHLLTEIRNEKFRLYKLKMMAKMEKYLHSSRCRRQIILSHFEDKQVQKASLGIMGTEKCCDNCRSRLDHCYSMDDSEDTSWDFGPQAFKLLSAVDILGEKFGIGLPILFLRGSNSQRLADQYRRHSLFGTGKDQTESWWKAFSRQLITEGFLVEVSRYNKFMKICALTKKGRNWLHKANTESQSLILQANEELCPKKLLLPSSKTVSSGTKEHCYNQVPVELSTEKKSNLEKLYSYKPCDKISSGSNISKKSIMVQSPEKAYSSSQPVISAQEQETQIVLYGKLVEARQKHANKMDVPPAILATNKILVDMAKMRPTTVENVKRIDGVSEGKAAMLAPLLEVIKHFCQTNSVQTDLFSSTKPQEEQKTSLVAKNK
Bifunctional 3'-5' exonuclease/ATP-dependent helicase WRN, sequence (Q14191 whole entry): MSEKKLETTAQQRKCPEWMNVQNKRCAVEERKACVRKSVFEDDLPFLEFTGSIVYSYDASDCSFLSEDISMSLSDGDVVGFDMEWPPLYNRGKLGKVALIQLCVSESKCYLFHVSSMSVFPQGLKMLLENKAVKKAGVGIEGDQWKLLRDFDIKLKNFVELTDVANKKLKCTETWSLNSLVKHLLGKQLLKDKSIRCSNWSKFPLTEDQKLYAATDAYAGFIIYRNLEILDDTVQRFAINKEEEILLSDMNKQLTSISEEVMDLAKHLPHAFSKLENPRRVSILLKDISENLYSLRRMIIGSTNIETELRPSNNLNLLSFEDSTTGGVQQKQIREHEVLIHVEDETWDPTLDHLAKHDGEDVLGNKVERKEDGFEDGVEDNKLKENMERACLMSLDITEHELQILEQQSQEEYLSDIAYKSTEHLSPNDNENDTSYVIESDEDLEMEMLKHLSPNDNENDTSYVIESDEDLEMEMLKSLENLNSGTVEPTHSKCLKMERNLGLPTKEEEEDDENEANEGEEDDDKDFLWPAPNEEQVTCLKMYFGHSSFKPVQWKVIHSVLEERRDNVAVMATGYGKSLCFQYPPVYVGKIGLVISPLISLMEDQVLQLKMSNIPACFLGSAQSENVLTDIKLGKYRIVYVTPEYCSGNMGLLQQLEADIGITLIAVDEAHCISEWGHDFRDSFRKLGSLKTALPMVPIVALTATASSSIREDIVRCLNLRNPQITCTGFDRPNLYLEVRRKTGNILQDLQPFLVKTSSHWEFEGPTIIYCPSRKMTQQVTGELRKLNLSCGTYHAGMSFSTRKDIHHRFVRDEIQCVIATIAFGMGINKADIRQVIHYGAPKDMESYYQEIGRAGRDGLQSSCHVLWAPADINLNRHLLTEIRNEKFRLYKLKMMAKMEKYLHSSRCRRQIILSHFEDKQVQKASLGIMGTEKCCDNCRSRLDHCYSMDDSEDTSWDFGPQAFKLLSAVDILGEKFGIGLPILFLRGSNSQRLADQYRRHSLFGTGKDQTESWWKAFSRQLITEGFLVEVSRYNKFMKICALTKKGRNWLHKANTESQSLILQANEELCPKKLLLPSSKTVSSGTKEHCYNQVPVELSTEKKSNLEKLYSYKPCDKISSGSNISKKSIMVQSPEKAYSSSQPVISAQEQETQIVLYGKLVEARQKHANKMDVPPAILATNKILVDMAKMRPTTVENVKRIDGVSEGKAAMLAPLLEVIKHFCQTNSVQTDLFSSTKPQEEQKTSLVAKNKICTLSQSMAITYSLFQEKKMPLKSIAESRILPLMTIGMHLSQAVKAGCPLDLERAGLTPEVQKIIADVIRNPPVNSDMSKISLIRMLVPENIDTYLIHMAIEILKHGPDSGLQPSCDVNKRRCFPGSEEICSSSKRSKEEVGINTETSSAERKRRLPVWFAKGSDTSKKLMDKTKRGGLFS

Row | IC50 [1] | IC50 [2] | SMILES
1 | 26 nM | 23 nM | CCc1c(N2CCN(C(=O)c3ncnc(C)c3O)CC2)c(=O)n2nc(-c3ccc4nn(C)cc4c3)nc2n1CC(=O)Nc1ccc(C(F)(F)F)cc1Cl [WO2025049746, Example 235]
2 | 32 nM | 31 nM | CCc1c(N2CCN(C(=O)c3ncnc(C)c3O)CC2)c(=O)n2nc(-c3cc(F)c4nc(C)oc4c3)nc2n1CC(=O)Nc1ccc(C(F)(F)F)cc1Cl [WO2025049746, Example 297]
3 | 48 nM | 44 nM | CCc1c(N2CCN(C(=O)c3ncnc(C)c3O)CC2)c(=O)n2nc(-c3ccc4c(c3)CCN(C)C4)nc2n1CC(=O)Nc1ccc(C(F)(F)F)cc1Cl [WO2025049746, Example 294]
4 | 150 nM | 169 nM | CCc1c(N2CCN(C(=O)c3nc4c(cc3O)CCCC4)CC2)c(=O)n2nc(-c3ccc4c(c3)COC4)nc2n1CC(=O)Nc1ccc(C(F)(F)F)cc1Cl [WO2025049746, Example 423]
